Measurements from patent US12702670B2, “Compositions and methods for treating breast cancer” (The Regents of the University of California, priority 2020, dated 2026).
Entries after “also recorded” stand apart in the source; their conditions may differ.

Columns and labels:
[1] = test system: AR; assay: AR levels in TNBC cells; format: cell-based; settings: in vitro
[2] = test system: IGF2-expressing TNBC cells; settings: in vitro; statement carries reference 1; cited from earlier work
[3] = test system: murine 4T1 TNBC; assay: Cell viability of murine 4T1 TNBC in vitro; format: cell-based
Protocol: After seeding TNBC cells for 24 hr, cells were exposed to selected combinations of BMS-754807 (20 μM), enzalutamide (20 μM), and NVP-AEW541 (8 μM) for 72 h. Cell viability was tested by CellTiter 96® aqueous non-radioactive cell proliferation assay (error bar=SEM; n=8; **P<0.001 *P<0.05). Results shown as % of vehicle treated controls.

[4] = test system: IGF2-expressing TNBC cells; assay: TNBC cell proliferation in vitro; format: cell-based, human; settings: alone and combined
[5] = test system: 4T1 TNBC cells; assay: Murine 4T1 TNBC model in syngeneic BALB/c mice; format: in vivo
Protocol: FIG. 6A-D show a combination treatment of BMS with anti PD-L1 checkpoint antibody suppresses 4T1 TNBC xenograft progression in vivo. TNBC 4T1 cells (2×105) were implanted in the mammary fat pads of BALB/c female mice (6-week old) using established methods. Mice were then randomized for treatment when tumor volumes were approx. 200 mm3. Mice were treated with either vehicle control (Con), BMS 10 mg/kg, by oral gavage, daily (BMS), anti-PD-L1 checkpoint antibody from Biolegend (anti-CD274/B7-H1/PD-L1 clone 10F.9G2, 100 μg/mouse IP in PBS, Q3 days) (Ab) or combination therapy with BMS and anti-PD-L1 antibody (BMS+Ab). Tumor sizes were recorded Q 2-3 days; and mice were weighed twice weekly. Studies used 5 mice/group.
TNBC clinical trials have shown a potential benefit of anti-PD-L1 antibodies as ICIs for anti-TNBC therapy. […] Thus, 4T1 cells were implanted in mammary fat pads of female syngeneic BALB/c mice to assess antitumor efficacy of BMS-754807 alone and combined with anti-PD-L1 antibodies in mice with intact immune systems (FIG. 6). After 10 days of treatment, tumors were harvested and processed for mass cytometry analyses to assess changes in immune cell subsets under different treatment conditions in FIG. 6.

[6] = test system: MDA-MB-231 TNBC cell line; assay: Scratch wound migration assay (IncuCyte S3); format: cell-based, human; settings: media conditioned with IGF2 alone (100 ng/ml), 48 h
Protocol: (§1) MDA-MB-231 and HCC 1937 TNBC cell lines were cultured in complete media in 96-welled plates. In each well 60,000 cells were plated. Scratch wounds were made using Unique WoundMaker™. Wound images were collected every 2 h for 48 h using the IncuCyte S3 Live-Cell Analysis System. Media containing IGF2 (100 ng/ml) was refreshed daily. […] Magnification 100×. P<0.05. […] Magnification 100×. P<0.05. FIGS. 4C & D show conditioned media containing a combination of IGF1R/IR antagonists. […] BMS/NVP=BMS-754807 (20 uM) and NVP-AEW541 (8 uM).
(§2) In vitro TNBC cell migration is stimulated in media conditioned with IGF2 alone (FIGS. 4A & 4B).

[7] = test system: HCC 1937 TNBC cell line; assay: Scratch wound migration assay (IncuCyte S3); format: cell-based; settings: media conditioned with IGF2 alone (100 ng/ml), 48 h
Protocol: as §1, §2

Compound	levels of ARs in TNBC cells [1]	human TNBC cell proliferation [2]	cell viability [3]	anti-proliferative effects on IGF2-expressing TNBC cells [4]	tumor volume / TNBC progression ([5]; BALB/c mice, 4T1 in mammary fat pads, BMS 10 mg/kg oral gavage daily, anti-PD-L1 antibody 100 μg/mouse IP Q3 days)	myeloid derived suppressor cells (MDSCs), total and PMN-MDSC, in tumors ([5]; mass cytometry of 4T1 tumors harvested after 10 days of treatment, BMS 10 mg/kg oral daily, Ab 100 μg IP Q3 days)	effector CD8+ and CD4+ tumor infiltrating lymphocytes (TILs) ([5]; mass cytometry of 4T1 tumors, BMS 10 mg/kg oral daily, Ab 100 μg IP Q3 days)	cell migration [6]	cell migration [7]
C[C@@]1(C(=O)Nc2ccc(F)nc2)CCCN1c1nc(Nc2cc(C3CC3)n[nH]2)c2cccn2n1 [BMS-754807]	decrease levels of ARs	reduce human TNBC cell proliferation	Reduction of cell viability	anti-proliferative effects	markedly reduced tumor volume; also recorded: significant antitumor effects	decreased levels	significantly increased		
Nc1ncnc2c1c(-c1cccc(OCc3ccccc3)c1)cn2C1CC(CN2CCC2)C1 (centres unmarked) [NVP-AEW541]	decrease levels of ARs			anti-proliferative effects					
IGF2: insulin-like growth factor 2, hormone added to media at 100 ng/ml								stimulated	stimulated
